According to publication PMC10221314 (Pharmaceuticals, 2023):
Entries after “also recorded” stand apart in the source; their conditions may differ.

What was measured:
[1] = system: LX-2 cells; experiment: Western blot of liver-fibrosis-associated proteins in LX-2 cells and HSC-T6 cells; assay type: cell-based; settings: 20 μM
Description: The total protein concentration in cell and liver tissue lysates was determined using a BCA kit (Beyotime Biotechnology, P0009). Following immune precipitation with appropriate antibodies overnight at 4 °C and incubation with Protein A/G Plus-agarose (Santa Cruz Biotechnology, sc-2003), immunocomplexes or lysates were subjected to SDS-PAGE gel electrophoresis and transferred onto PVDF membranes. Target proteins were detected using specific primary antibodies and an appropriate secondary antibody, with electrochemiluminescence carried out according to the manufacturer’s instructions with a Tanon 5200 imaging system (Shanghai, China). The internal control utilized was GADPH.
(A–E) The LX-2 cells underwent a 24 h treatment of 2 ng·mL^−1 TGFβ1, with or without varying concentrations of candidate compounds, following FBS starvation. […] GAPDH/GAPDH was used as the loading control. The mean ± SD values were obtained from three independent assays. […] ANOVA was followed by Tukey’s test for statistical analysis.

[2] = Stability of compound 10b in mouse plasma at 37 °C (HPLC); assay type: in vitro ADME; design: recovery at 6 h / recovery at 48 h: dose or concentration left out as unconfirmed; settings: for Mass of 10b extracted from mouse plasma: theoretical mass 38.5 μg
Description: 3. Stability test of compound 10b
To preliminarily determine the stability of compound 10b in a biological environment, an in vitro experimental verification method was employed. The trace compound was dissolved in mouse plasma to simulate the biological environment.
Samples were taken at different time intervals at 37 °C, and the content of the compound was determined by HPLC C18 analytical column. The peak area of the absorption at 220 nm was utilized for content calculation.
The standard curve shown in Fig. S1 can be plotted using the peak area and the mass of compound 10b in the corresponding volume of the solution. The relationship is y = 23.253x+ 100.67 (R2 = 0.9994), which meets linearity requirements and can be used for subsequent operations.
Fig. S1. The relationship curve between the absorption peak area and mass of compound 10b at 220 […]
Subsequently, a mouse with a body weight of 20 g and blood volume of 1 mL was calculated based on the subsequent in vivo experiment’s dosage (100 mg·Kg-1).
Assuming 100% absorption, the converted plasma drug concentration is 2 mg·mL -1.
Based on the calculation, 0.5 mg of 10b was added to […] of mouse plasma to prepare a mixed solution. The plasma was then processed after 1h, 6h, 12 h, 24 h, and 48 h, respectively. The compound content in the sample was compared to the initial content with UV absorption and retention time (t = 6.5 min). […]
significant decrease in the content of 10b was observed between 0 to 48 hours, […]

[3] = system: HFD mice; experiment: CDAHFD diet-induced NASH mouse model; assay type: in vivo
Description: Cells and liver tissue samples were subjected to RNA extraction and purification, followed by reverse transcription of equal amounts of total RNA into […] using a Transcriptor First Strand cDNA Synthesis Kit (Roche). The relative expression levels of the target gene were determined using TaqMan probe/primers with an ABI Q3 quantitative real-time PCR system, while GAPDH/Gapdh was utilized as an internal control for mRNA expression. The fold change in the expression of the target mRNA was calculated using Equation 2^−ΔΔCt.
A total of 24 C57BL/6N mice were randomly assigned to three groups, including Ctrl., Model-N.S., and Model-10b-100 mg·kg^−1, with eight animals per group. The randomization process was performed using Research Randomizer (RRID: SCR_008563). CDHFD (D09100310) diet was obtained from Research Diets Inc. Sixteen mice were fed the CDHFD diet for 12 weeks to induce NASH, with eight mice receiving a normal diet as a control. At the beginning of the 13th week, the mice in the model group were randomly assigned into two groups and given daily gavages of either normal saline (Model-N.S. group) or 100 mg·kg^−1 of compound 10b suspended in 0.5% sodium carboxymethylcellulose solution (Model-10b groups) for four weeks. Daily bodyweights were recorded, and blood samples were collected from the abdominal aorta following an overnight fast. Afterward, the mice were euthanized using isoflurane. Liver tissue samples were obtained, and some were treated with 4% paraformaldehyde to prepare them for future histological analysis, while others were kept at −80 °C for later examination. Maximum liver lobule was collected for each mouse.
Kits purchased from Zhongsheng Beikong Biotechnology (Beijing, China) were used to measure the serum concentrations of alanine aminotransferase, aspartate aminotransferase, alkaline phosphatase, γ-glutamyl transpeptidase, total cholesterol, total triglyceride, low-density lipoprotein (LDL), high-density lipoprotein (HDL) cholesterol, lactate dehydrogenase, total bile acid, and total bilirubin. The samples were analyzed on a Hitachi 7100 Analyzer.
The liver tissue was fixed with formalin, embedded in paraffin, and sectioned. The sections were stained with H&E, Oil Red, Masson’s, and Sirius Red. Liver necrosis, inflammation, bile duct proliferation, hepatic steatosis, and lobule inflammation were evaluated on a scale of 1–5 in a blinded manner using a Leica DM1000 microscope. Five randomly selected manifold area fields of vision were used to quantify the red area in each field of vision (eight in each group), which was counted using ImageJ software. The liver hydroxyproline concentration was determined using kits from Nanjing, China, in accordance with the manufacturer’s instructions.
The mouse liver samples were cut into small pieces of 50 mg size and homogenized in TG, TC, and FC extracts using a high-speed tissue homogenizer. The TG, TC, and FC were then extracted from the tissue, and their contents in the sample were calculated using the protein content for calibration. The determination process utilized the test kit for TC, TG, and FC of high-fat samples from Applygen Technologies Inc. (E1025, E1026, E1027).

[4] = HFD (CDAHFD) mice, 100 mg·kg-1 gavage daily, four weeks

SMILES: CC1(C)CCC2(C(=O)O)CCC3(C)C(C(OC(=O)CCC(NC(=O)OC(C)(C)C)C(=O)OC(C)(C)C)CC4C5(C)CCC(O)C(C)(C)C5CCC43C)C2C1 [Compound 10b, 3β-hydroxy-12β-(4′-((tert-butoxycarbonyl)amide)-5′-(tert-butoxy)-L-glutamte)oxy-13H-olean-28-oic acid]
- content of protein TGFβ1 [1]: reduced
- content of protein TIMP1 [1]: reduced
- content of protein a-SMA [1]: reduced
- recovery at 0 h, 0.0025 mg/mL ([2]; 0 h, read-out: Recovery rate): 68%
- Mass of 10b extracted from mouse plasma ([2]; 0 h): 26.2 µg
- content of 10b in mouse plasma (stability) ([2]; 0 to 48 h): existed stably in mouse plasma; also recorded: remained almost unchanged
- recovery at 1 h, 0.0025 mg/mL ([2]; 1 h, read-out: Recovery rate): 70.9%
- Mass of 10b extracted from mouse plasma ([2]; 1 h): 27.3 µg
- recovery at 6 h ([2]; 6 h, read-out: Recovery rate): 75.8%
- Mass of 10b extracted from mouse plasma ([2]; 6 h): 29.2 µg
- recovery at 12 h, 0.0025 mg/mL ([2]; 12 h, read-out: Recovery rate): 63.4%
- Mass of 10b extracted from mouse plasma ([2]; 12 h): 24.4 µg
- recovery at 24 h, 0.0025 mg/mL ([2]; 24 h, read-out: Recovery rate): 68.5%
- Mass of 10b extracted from mouse plasma ([2]; 24 h): 26.4 µg
- recovery at 48 h ([2]; 48 h, read-out: Recovery rate): 76.6%
- Mass of 10b extracted from mouse plasma ([2]; 48 h): 29.5 µg
- hepatic lobular inflammation (NAS score) ([3]; CDAHFD mice, 100 mg·kg-1): improved
- intrahepatic steatosis (NAS score) ([3]; CDAHFD mice, 100 mg·kg-1): improved
- liver FC (free cholesterol) ([3]; CDAHFD mice, 100 mg·kg-1): no significant effect
- liver TC ([3]; CDAHFD mice, 100 mg·kg-1): no significant effect
- total triglyceride content in the liver ([3]; CDAHFD mice, 100 mg·kg-1): reduced
- Serum ALP [3, 4]: 189.71±29.41 U·L-1
- Serum ALT [3, 4]: 325.43±88.40 U·L-1
- Serum AST [3, 4]: 401.86±91.05 U·L-1
- Serum CHO [3, 4]: 2.36 ± 0.44 mmol/L
- Serum Glu [3, 4]: 5.71 ± 1.25 mmol/L
- Serum HDL [3, 4]: 1.22 ± 0.33 mmol/L
- Serum LDH [3, 4]: 1326.57±264.54 U·L-1
- Serum LDL [3, 4]: 0.23 ± 0.04 mmol/L
- Serum TBA [3, 4]: 23.46 ± 12.81 µmol/L
- Serum TBiL [3, 4]: 3.81 ± 0.92 µmol/L
- mRNA expression of liver fibrosis-related genes in liver ([3]; NASH mouse model, 100 mg·kg-1): inhibit
